Reference: patent US8334255B2, “Peptide and treatment for HIV-1 infection” (Thomas Jefferson University, priority 2006, dated 2012)
Primed or numbered codes have the meaning given here. Ends that are not written are not given here. FITC′ = not defined here

What was measured:
H9 and MT-2 cells = experiment: Cellular uptake and intracellular localization of FITC-tagged peptide by fluorescence microscopy; assay type: cell-based
Procedure: The peptide of amino acid sequence SEQ ID NO:2 was synthesized with a C-terminal fluoroscein isothiocyanate (FTIC) tag. The FITC tag enables fluorescence microscopy of living cells in order to evaluate cellular uptake and intracellular localization of the peptide. Cultures of H9 and MT-2 cells were grown in media as recommended by the American Tissue Culture Collection (ATCC) and each culture was treated once in culture with of the FTIC-tagged peptide of the amino acid sequence SEQ ID NO:2. The cells were then photographed in the culture dish with an inverted fluorescence microscopy at various time points. […] The intracellular distribution was both punctate and diffuse in the cytoplasm but little or no FTIC-tagged peptide was observed within the nuclei of cells. This distribution was sustained for 24-48 hours and diminished by over 50% by 72 hours post-treatment.
To highlight the position of the nucleus, H9 and MT-2 cells treated with the FTIC-tagged peptide of the amino acid sequence SEQ ID NO:2 as described above, fixed with 2% paraformaldehyde, permeabilized with 0.4% Triton X-100 and stained with the DNA selective stain 4′,6-diamidino-2-phenylindole (DAPI).

HIV-1IIIB virus = experiment: Low multiplicity of infection acute infection assay in MT-2 cells, reverse transcriptase assay; settings: for delay of the onset of virus production: MT-2 cells, RT assay
HIV-1NL4-3 Viruses [1] = experiment: Viral infectivity assay in peripheral blood mononuclear cells, p24 Gag ELISA; assay type: cell-based; settings: PBMCs infected with HIV-1NL4-3, MOI 0.1; p24 antigen level by ELISA
Procedure: Various truncated analogues of the peptide of amino acid sequence SEQ ID NO:36 were prepared to determine the minimal peptide necessary to inhibit viral infectivity. The compounds were tested in a viral infectivity assay in which PBMCs were infected with HIV-1NLA-3 viruses (MOI: 0.1). The amounts of virus produced were monitored by detecting the HIV-1 p24 antigen. level in the cell culture using p24 Gag ELISA (Zeptometrics).

[2] = Physicochemical properties of the peptide (isoelectric point, solubility)
HIV-1NL4-3 Viruses [3] = experiment: Viral infectivity assay in human T lymphoblastoid H9 cell line, p24 antigen ELISA; assay type: cell-based; settings: H9 cells, MOI 0.01, peptide 50 μM, compared to untreated cells or control peptide
Procedure: A viral infectivity assay was performed in the presence or absence of the peptides of amino acid sequence SEQ ID NO:2 and SEQ ID NO:36, and the control peptide of amino acid sequence SEQ ID NO:35 using HIV-1NL4-3 viruses in H9 cells and assaying HIV-1 p24 antigen. The procedure was performed essentially as described by B. Yang, et al., J. Bio. Chem., 2003; 278(8), 6596-602, which describes the method as follows. H9 cells (1×10^6) are mixed with HIV-1NL4-3 viruses at a multiplicity of infection of 0.01. After incubation at 37° C. for 5 hours, the excess viruses were removed, and the cells are cultured in the presence of RPMI 1640 medium plus […] fetal bovine serum with or without the peptides at a concentration of 50 μM. Every 3-4 days the supernatants are harvested and refreshed. The effects of the peptides on viral infectivity are monitored by detecting the HIV-1 p24 antigen level in the cell culture supernatant via ELISA.

[4] = living H9 and MT-2 cells, single treatment

## FTIC-tagged peptide of the amino acid sequence SEQ ID NO:2: peptide of amino acid sequence SEQ ID NO:2 synthesized with a C-terminal fluoroscein isothiocyanate (FTIC) tag (YGRKKRRQRRRGQGGSPLPRSV-{FITC′})
H9 and MT-2 cells; H9 and MT-2 cells, 24 h after a single treatment
  intracellular localization (fixed cells, DAPI nuclear stain): localized in the cytoplasm but was not present in the nucleus
H9 and MT-2 cells; by 72 hours post-treatment
  diminution of intracellular peptide distribution: over 50%
H9 and MT-2 cells; [4]
  time after which fluorescence within cells was detected: 5 ninutes
  time for which the intracellular distribution was sustained: 24 to 48 h
  time until intracellular localization was apparent in all cells: ≤ 30 min
H9 and MT-2 cells; living H9 and MT-2 cells, distribution punctate and diffuse in the cytoplasm
  peptide observed within the nuclei of cells: little or no

## YGRKKRRQRRRGDLGEQHFKGLVL [SEQ ID NO:35]
HIV-1IIIB virus; MOI 0.003, peptide 50 μM
  effect on virus production (in words): somewhat enhance virus production
HIV-1IIIB virus; MOI 0.01, peptide 50 μM
  effect on virus production (in words): did not inhibit virus production
HIV-1IIIB virus; MOI 0.03, peptide 50 μM
  effect on virus production (in words): did not inhibit virus production
HIV-1IIIB virus; MOI 0.1, peptide 50 μM
  effect on virus production (in words): did not inhibit virus production

## YGRKKRRQRRRGGGSPLPRSV [SEQ ID NO: 74]
HIV-1NL4-3 Viruses [1]
  Activity (inhibiting HIV-1NL4-3 viruses in viral infectivity assay): Inactive

## YGRKKRRQRRRGQGGSPLPRSV [SEQ ID NO:2]
[2]
  isoelectric point (pI): 12.39
  solubility: ~1000 µg/mL

## YGRKKRRQRRRGSNQGGSPLPRS [SEQ ID NO: 75]
HIV-1NL4-3 Viruses [1]
  Activity (inhibiting HIV-1NL4-3 viruses in viral infectivity assay): Inactive

## YGRKKRRQRRRGSNQGGSPLPRSV [SEQ ID NO:36]
HIV-1NL4-3 Viruses [3]
  effect on viral replication (HIV-1 p24 antigen in supernatant): inhibited viral replication
HIV-1IIIB virus; MOI 0.003, peptide 50 μM
  effect on virus production (in words): did not appear to have any effect upon virus production
HIV-1IIIB virus; MOI 0.01, peptide 50 μM
  delay of the onset of virus production: 3 to 4 days
HIV-1IIIB virus; MOI 0.03, peptide 50 μM
  delay of the onset of virus production: 2 to 3 days
HIV-1IIIB virus; MOI 0.1, peptide 50 μM
  delay of the onset of virus production: 4 to 5 days
